Results on one molecule are retold here after US20080176261A1, “Colorimetric Substrate and Methods for Detecting Poly(ADP-ribose) Polymerase Activity including PARP Enzymes PARP-1, VPARP, and Tankyrase-1” (THE BOARD OF TRUSTEES OF THE UNIVERSITY OF ILLINOIS, priority 2007, published 2008).

Test [1] deals with PARP-1 (Homo sapiens, UniProt P09874). As to the kind of experiment: biochemical. On the procedure:
(§1) For these measurements, concentrations of DPQ ranging from 0.05 nM to 10 μM were added to a 96-well plate containing PARP assay buffer and ADP-ribose-pNP and the absorbance at 405 nm was measured in triplicate.
(§2) Determination of IC50 values for PARP inhibitors. To determine IC50 values of the PARP inhibitors, 22.5 μL of PARP assay buffer containing varying concentrations of DPQ and 20 μg/mL DNase activated DNA (for PARP-1 only) were added into the wells of a 384-well plate. A 22.5 μL volume of PARP at a concentration of 5 μg/mL PARP-1, 40 μg/mL VPARP and 40 μg/mL tankyrase-1 in PARP assay buffer was added. The reaction was initiated by the addition of 5 μL of a 2.5 mM solution of ADP-ribose-pNP in PARP assay buffer, bringing the final concentration to 2.5 μg/mL PARP-1 with 10 μg/mL DNA or 20 μg/mL VPARP or 20 μg/mL tankyrase-1, 250 μM ADP-ribose-pNP with varying concentrations of inhibitors in a total volume of 50 μL. The plate was then read every 2 minutes for 2 hours at 405 nm on a SpectraMax 384 plate reader (Molecular Devices). […]
(§3) Data analysis. Data from the plate reader was imported into Excel where appropriate subtractions were made and the data was plotted. Graphs were analyzed using Table Curve 2D. […]

Test [2] concerns the target T1, VPARP (Homo sapiens, UniProt Q9UKK3).
T1 construct: The plasmid with the catalytic domain of VPARP, pET28b-p193cat; made in house; host or cells: E. coli Rosetta
T1 sequence (Q9UKK3 369-573 limits assumed): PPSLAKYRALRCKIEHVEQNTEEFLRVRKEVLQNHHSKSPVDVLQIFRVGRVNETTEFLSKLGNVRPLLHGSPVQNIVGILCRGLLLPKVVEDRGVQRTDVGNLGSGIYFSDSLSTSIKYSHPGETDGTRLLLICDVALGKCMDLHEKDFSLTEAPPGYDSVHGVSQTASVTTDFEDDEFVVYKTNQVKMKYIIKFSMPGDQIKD
As to the kind of experiment: IC50 determination of PARP inhibitor with ADP-ribose-pNP substrate, VPARP. Conditions: 250 μM ADP-ribose-pNP. In kind it is biochemical. As to the method: as §1, §2, §3

Test [3] has as its target T2, tankyrase-1 (Homo sapiens, UniProt O95271).
T2 construct: The SAM and PARP domain of tankyrase was subcloned into pGEX-5X-1; made in house; host or cells: E. coli Rosetta
T2 sequence (O95271 1030-1327): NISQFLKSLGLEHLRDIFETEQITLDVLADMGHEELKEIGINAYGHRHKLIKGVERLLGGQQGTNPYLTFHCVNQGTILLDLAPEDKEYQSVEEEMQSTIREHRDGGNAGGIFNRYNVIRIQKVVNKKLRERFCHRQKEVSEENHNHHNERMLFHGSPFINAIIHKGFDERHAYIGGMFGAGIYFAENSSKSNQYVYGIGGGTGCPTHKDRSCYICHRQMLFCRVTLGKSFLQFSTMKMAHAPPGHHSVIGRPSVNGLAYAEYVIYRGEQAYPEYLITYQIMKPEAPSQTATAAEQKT
As to the kind of experiment: IC50 determination of PARP inhibitor with ADP-ribose-pNP substrate, tankyrase-1. In kind it is biochemical. The following applies: 250 μM ADP-ribose-pNP. On the procedure: as §1, §2, §3

PARP-1, sequence (P09874 whole entry): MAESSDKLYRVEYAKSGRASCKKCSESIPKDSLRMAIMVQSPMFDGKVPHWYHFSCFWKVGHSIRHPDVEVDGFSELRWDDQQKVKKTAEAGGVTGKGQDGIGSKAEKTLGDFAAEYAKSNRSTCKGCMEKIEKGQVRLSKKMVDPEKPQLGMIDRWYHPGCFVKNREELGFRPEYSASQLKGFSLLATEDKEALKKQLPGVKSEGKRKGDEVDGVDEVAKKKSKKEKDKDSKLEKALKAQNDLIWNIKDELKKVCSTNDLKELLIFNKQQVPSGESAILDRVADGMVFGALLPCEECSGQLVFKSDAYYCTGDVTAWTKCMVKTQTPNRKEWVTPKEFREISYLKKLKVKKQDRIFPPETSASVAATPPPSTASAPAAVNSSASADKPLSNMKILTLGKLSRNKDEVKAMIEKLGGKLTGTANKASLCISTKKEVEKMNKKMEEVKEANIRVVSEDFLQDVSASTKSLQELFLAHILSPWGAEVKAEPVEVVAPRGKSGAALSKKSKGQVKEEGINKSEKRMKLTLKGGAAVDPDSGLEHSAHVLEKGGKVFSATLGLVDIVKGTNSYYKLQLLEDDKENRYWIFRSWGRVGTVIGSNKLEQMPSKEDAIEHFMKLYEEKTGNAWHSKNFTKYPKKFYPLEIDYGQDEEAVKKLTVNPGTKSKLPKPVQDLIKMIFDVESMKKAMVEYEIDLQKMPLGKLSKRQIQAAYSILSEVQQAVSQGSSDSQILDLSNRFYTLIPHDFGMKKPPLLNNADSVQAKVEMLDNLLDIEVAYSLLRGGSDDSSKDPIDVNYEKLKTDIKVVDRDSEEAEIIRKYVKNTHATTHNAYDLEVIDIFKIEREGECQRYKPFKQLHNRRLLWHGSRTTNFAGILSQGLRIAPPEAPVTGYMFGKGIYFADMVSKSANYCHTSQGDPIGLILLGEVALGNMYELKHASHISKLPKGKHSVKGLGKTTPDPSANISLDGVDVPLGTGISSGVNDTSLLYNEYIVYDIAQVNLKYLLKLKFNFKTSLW

For `O=C1NCCc2c(OCCCCN3CCCCC3)cccc21` [DPQ, 3,4-Dihydro-5-[4-(1-piperidinyl)butoxyl]-1 (2H)-isoquinolinone], the concentration for half-maximal inhibition (IC50) came out at 23 nM in test [1], 281 nM in test [2] and 33 nM in test [3].

Usually IC50 stands for the midpoint of a concentration-inhibition curve. A low value points to greater potency in that assay.
